Assay results as given in patent US20250268826A1, “IONIZABLE LIPIDOID COMPOSITIONS AND THERAPEUTIC USES THEREOF” (Flagship Pioneering Innovations VII, LLC, priority 2023, published 2025).
Values joined by “and” are separate entries in the source; they are usually repeats but may differ in a detail not shown here. Equal entries are not always repeated. Where two headings read alike, the source gives them in different places. Values belong to the compound of their own block, whether it stands above or below them.

Key:
Format in all cases: physicochemical
[1] = LNP size and polydispersity index (PDI) by dynamic light scattering (DLS)
[2] = LNP Zeta potential measured using a Zetasizer (Malvern); conditions: for Zeta potential (mV): LNP with hEPO mRNA, N:P ratio 6
[3] = Encapsulation efficiency (EE %) by fluorescence based Ribogreen assay
[4] = Table 9, LNP 50:10:38.5:1.5 mol %, hEPO mRNA, N:P 6
[5] = Table 9, LNP Lipid:DSPC:Cholesterol:DMG-PEG2k 50:10:38.5:1.5 mol %, hEPO mRNA, N:P 6
[6] = Table 10, LNP with hEPO mRNA, Lipid:DSPC:Cholesterol:DMG-PEG2k 50:10:38.5:1.5 mol %, N:P ratio 6, DLS
[7] = Table 11, LNP with hEPO mRNA, Lipid:DSPC:Cholesterol:DMG-PEG2k 50:10:38.5:1.5 mol % (ALC-0315: 46.3:9.4:42.7:1.6), N:P ratio 6, HEPES/sodium chloride/sucrose buffer, stored at −80C
[8] = Table 1, LNP lipid:DSPC:Cholesterol:DMG-PEG2k 50:10:38.5:1.5 mol %, hEPO mRNA, N:P 6
[9] = Table 3, LNP 50:10:38.5:1.5 mol %, hEPO mRNA, N:P 6
[10] = Table 3, LNP lipid:DSPC:Cholesterol:DMG-PEG2k 50:10:38.5:1.5 mol %, hEPO mRNA, N:P 6
[11] = Table 5, LNP 50:10:38.5:1.5 mol %, hEPO mRNA, N:P 6
[12] = Table 5, LNP 60:0:38.5:1.5 mol %, hEPO mRNA, N:P 6
[13] = Table 2, LNP 20:10:68.5:1.5 mol %, EGFP mRNA, N:P 2.4
[14] = Table 2, LNP 20:40:38.5:1.5 mol %, EGFP mRNA, N:P 2.4
[15] = Table 2, LNP 30:10:58.5:1.5 mol %, EGFP mRNA, N:P 3.6
[16] = Table 2, LNP 30:30:38.5:1.5 mol %, EGFP mRNA, N:P 3.6
[17] = Table 2, LNP 40:10:48.5:1.5 mol %, EGFP mRNA, N:P 4.8
[18] = Table 2, LNP 40:20:38.5:1.5 mol %, EGFP mRNA, N:P 4.8
[19] = Table 2, LNP 50:10:38.5:1.5 mol %, EGFP mRNA, N:P 6
[20] = Table 8, LNP 50:10:38.5:1.5 mol %, hEPO mRNA, N:P 6

PDI [1, 4]: 0.125 | Size [1, 5]: 77.4 nm | Zeta potential [2, 4]: −28.49 mV | Encapsulation Efficiency % [3, 4]: 99.7%
SMILES: CCCCCCCCC(CCCCCC)C(=O)OCCN(CCOC(=O)C(CCCCCC)CCCCCCCC)C(=O)CN(CC)CCC.Cl (single isomer, unassigned) [Compound 960a]

PDI [1, 4]: 0.099 | Size [1, 5]: 61.4 nm | Zeta potential [2, 4]: −23.35 mV | Encapsulation Efficiency % [3, 4]: 99.8%
SMILES: CCCCCCCCC(CCCCCC)C(=O)OCCN(CCOC(=O)C(CCCCCC)CCCCCCCC)C(=O)CN(CC)CCC.Cl (single isomer, unassigned) [Compound 960b]

PDI [1, 6]: 0.295 | Size (nm) [1, 6]: 61.4 nm | PDI [1, 7]: 0.280 | Size (nm) [1, 7]: 74.7 nm | Zeta potential (mV) ([2]; Table 10, Lipid:DSPC:Cholesterol:DMG-PEG2k 50:10:38.5:1.5 mol %): −10.3 mV | Zeta potential (mV) ([2]; Table 11, Lipid:DSPC:Cholesterol:DMG-PEG2k 50:10:38.5:1.5 mol % (ALC-0315: 46.3:9.4:42.7:1.6), HEPES/sodium chloride/sucrose buffer, stored at −80C): −7.5 mV | Encapsulation Efficiency % ([3]; Table 10, LNP with hEPO mRNA, Lipid:DSPC:Cholesterol:DMG-PEG2k 50:10:38.5:1.5 mol %, N:P ratio 6, Ribogreen assay): 83.8% | Encapsulation Efficiency % [3, 7]: 91.0%
SMILES: CCCCCCCCC(CCCCCC)C(=O)OCCCCCCN(CCCCO)CCCCCCOC(=O)C(CCCCCC)CCCCCCCC (stereo not drawn) [ALC-0315, reference compound]

PDI [1, 8]: 0.088 | Size [1, 8]: 62.6 nm | Zeta potential [2, 8]: 4.394 mV | Encapsulation Efficiency % [3, 8]: 97.9%
SMILES: CCCCCCCC/C=C\CCCCCCCC(=O)OCCN(CCOC(=O)CCCCCCC/C=C\CCCCCCCC)C(=O)CN [Compound 101]

PDI [1, 8]: 0.092 | Size [1, 8]: 77.3 nm | Zeta potential [2, 8]: 9.778 mV | Encapsulation Efficiency % [3, 8]: 97.5%
SMILES: CCCCCCCCCCCC(=O)OCCN(CCOC(=O)CCCCCCCCCCC)C(=O)CN [Compound 103]

PDI [1, 8]: 0.441 | Size [1, 8]: 74.7 nm | Zeta potential [2, 8]: −2.361 mV | Encapsulation Efficiency % [3, 8]: 94.4%
SMILES: CCCCCCCCCC(=O)OCCN(CCOC(=O)CCCCCCCCC)C(=O)CN [Compound 104]

PDI [1, 8]: 0.217 | Size [1, 8]: 72.6 nm | PDI [1, 9]: 0.256 | Size [1, 10]: 162.2 nm | PDI [1, 11]: 0.104 | PDI [1, 12]: 0.198 | Size [1, 12]: 146.3 nm | Size ([1]; Table 5, LNP Lipid:DSPC:Cholesterol:DMG-PEG2k 50:10:38.5:1.5 mol %, hEPO mRNA, N:P 6): 166.9 nm | Zeta potential [2, 8]: −4.852 mV | Zeta potential [2, 11]: −5.091 mV | Zeta potential [2, 12]: −8.315 mV | Encapsulation Efficiency % [3, 8]: 91.3% | Encapsulation Efficiency % [3, 9]: 99.9% | Encapsulation Efficiency % [3, 11]: 99.6% | Encapsulation Efficiency % [3, 12]: 99.3%
SMILES: CCCCCCCCC(CCCCCC)C(=O)OCCN(CCOC(=O)C(CCCCCC)CCCCCCCC)C(=O)CN (stereo not drawn) [Compound 105]

SMILES: CCCCCCCC/C=C\CCCCCCCC(=O)OCCN(CCOC(=O)CCCCCCC/C=C\CCCCCCCC)C(=O)C(C)N (stereo not drawn) [Compound 107]
Size [1, 8]: 100.4 nm | PDI [1, 9]: 0.016 | Size [1, 10]: 60.6 nm | Zeta potential [2, 8]: 5.484 mV | Encapsulation Efficiency % [3, 8]: 93% | Encapsulation Efficiency % [3, 9]: 99.9%

PDI [1, 8]: 0.557 | Size [1, 8]: 90.7 nm | Zeta potential [2, 8]: 8.911 mV | Encapsulation Efficiency % [3, 8]: 97.6%
SMILES: CCCCCCCCCCCC(=O)OCCN(CCOC(=O)CCCCCCCCCCC)C(=O)C(C)N (stereo not drawn) [Compound 109]

PDI [1, 8]: 0.069 | Size [1, 8]: 57.7 nm | Zeta potential [2, 8]: −4.943 mV | Encapsulation Efficiency % [3, 8]: 98%
SMILES: CCCCCCCCCC(=O)OCCN(CCOC(=O)CCCCCCCCC)C(=O)C(C)N (stereo not drawn) [Compound 110]

PDI [1, 8]: 0.223 | Size [1, 8]: 93.4 nm | PDI [1, 13]: 0.129 | PDI [1, 14]: 0.095 | PDI [1, 15]: 0.082 | PDI [1, 16]: 0.117 | PDI [1, 17]: 0.038 | PDI [1, 18]: 0.136 | PDI [1, 19]: 0.235 and 0.253 | Size ([1]; Table 2, LNP lipid:DSPC:Cholesterol:DMG-PEG2k 20:10:68.5:1.5 mol %, EGFP mRNA, N:P 2.4): 57.5 nm | Size ([1]; Table 2, LNP lipid:DSPC:Cholesterol:DMG-PEG2k 20:40:38.5:1.5 mol %, EGFP mRNA, N:P 2.4): 69.2 nm | Size ([1]; Table 2, LNP lipid:DSPC:Cholesterol:DMG-PEG2k 30:10:58.5:1.5 mol %, EGFP mRNA, N:P 3.6): 46.5 nm | Size ([1]; Table 2, LNP lipid:DSPC:Cholesterol:DMG-PEG2k 30:30:38.5:1.5 mol %, EGFP mRNA, N:P 3.6): 57 nm | Size ([1]; Table 2, LNP lipid:DSPC:Cholesterol:DMG-PEG2k 40:10:48.5:1.5 mol %, EGFP mRNA, N:P 4.8): 44.1 nm | Size ([1]; Table 2, LNP lipid:DSPC:Cholesterol:DMG-PEG2k 40:20:38.5:1.5 mol %, EGFP mRNA, N:P 4.8): 48.2 nm | Size ([1]; Table 2, LNP lipid:DSPC:Cholesterol:DMG-PEG2k 50:10:38.5:1.5 mol %, EGFP mRNA, N:P 6): 110.9 nm and 106 nm | PDI [1, 9]: 0.27 | Size [1, 10]: 100.9 nm | Zeta potential [2, 8]: −3.357 mV | Zeta potential [2, 13]: −6.2 mV | Zeta potential [2, 14]: −8.876 mV | Zeta potential [2, 15]: −4.4 mV | Zeta potential [2, 16]: −9.169 mV | Zeta potential [2, 17]: −6.9 mV | Zeta potential [2, 18]: −8.503 mV | Encapsulation Efficiency % [3, 8]: 95.9% | Encapsulation Efficiency % [3, 13]: 99.7% | Encapsulation Efficiency % [3, 14]: 99.3% | Encapsulation Efficiency % [3, 15]: 99.8% | Encapsulation Efficiency % [3, 16]: 99.2% | Encapsulation Efficiency % [3, 17]: 99.7% | Encapsulation Efficiency % [3, 18]: 99.6% | Encapsulation Efficiency % [3, 19]: 99.4% and 99.8% | Encapsulation Efficiency % [3, 9]: 98.1%
SMILES: CCCCCCCCC(CCCCCC)C(=O)OCCN(CCOC(=O)C(CCCCCC)CCCCCCCC)C(=O)C(C)N (stereo not drawn) [Compound 111]

SMILES: CCCCCCCC/C=C\CCCCCCCC(=O)OCCN(CCOC(=O)CCCCCCC/C=C\CCCCCCCC)C(=O)C(N)Cc1ccccc1 (stereo not drawn) [Compound 113]
PDI [1, 8]: 0.126 | Size [1, 8]: 79.1 nm | PDI [1, 9]: 0.068 | Size [1, 10]: 61.4 nm | Zeta potential [2, 8]: −2.878 mV | Encapsulation Efficiency % [3, 8]: 95.2% | Encapsulation Efficiency % [3, 9]: 99.7%

PDI [1, 8]: 0.291 | Size [1, 8]: 70.8 nm | Zeta potential [2, 8]: −2.403 mV | Encapsulation Efficiency % [3, 8]: 89.5%
SMILES: CCCCCCCCCCCC(=O)OCCN(CCOC(=O)CCCCCCCCCCC)C(=O)C(N)Cc1ccccc1 (stereo not drawn) [Compound 115]

PDI [1, 8]: 0.46 | Size [1, 8]: 109.4 nm | Encapsulation Efficiency % [3, 8]: 99.4%
SMILES: CCCCCCCC/C=C\CCCCCCCC(=O)OCCN(CCOC(=O)CCCCCCC/C=C\CCCCCCCC)C(=O)C(N)Cc1c[nH]cn1 (stereo not drawn) [Compound 125]

Size [1, 8]: 93.8 nm | Encapsulation Efficiency % [3, 8]: 99.7%
SMILES: CCCCCCCCC(CCCCCC)C(=O)OCCN(CCOC(=O)C(CCCCCC)CCCCCCCC)C(=O)C(N)Cc1c[nH]cn1 (stereo not drawn) [Compound 129]

PDI [1, 9]: 0.032 | Size [1, 10]: 63.1 nm | Encapsulation Efficiency % [3, 9]: 99.9%
SMILES: CCCCCCCC/C=C\CCCCCCCC(=O)OCCN(CCOC(=O)CCCCCCC/C=C\CCCCCCCC)C(=O)[C@H](C)N.Cl [Compound 201]

PDI [1, 9]: 0.033 | Size [1, 10]: 60.7 nm | Encapsulation Efficiency % [3, 9]: 99.7%
SMILES: CCCCCCCC/C=C\CCCCCCCC(=O)OCCN(CCOC(=O)CCCCCCC/C=C\CCCCCCCC)C(=O)[C@@H](N)Cc1ccccc1.Cl [Compound 202]

PDI [1, 20]: 0.188 | Size ([1]; Table 8, LNP Lipid:DSPC:Cholesterol:DMG-PEG2k 50:10:38.5:1.5 mol %, hEPO mRNA, N:P 6): 74.1 nm | Encapsulation Efficiency % [3, 20]: 99.7%
SMILES: CCCCCCCCC(CCCCCC)C(=O)OCCN(CCOC(=O)C(CCCCCC)CCCCCCCC)C(=O)CC(C)NCCC.Cl (stereo not drawn) [Compound 948]

SMILES: CCCCCCCCC(CCCCCC)C(=O)OCCN(CCOC(=O)C(CCCCCC)CCCCCCCC)C(=O)CN(C)C (stereo not drawn) [Compound 961]
Encapsulation Efficiency % [3]: 99.8%
